System: A549 cells
Assay: Immunoblotting of DNA damage and apoptosis biomarkers
Type: cell-based
Settings: 0.75-6 μM, 48 h
Description: To gain further insight into the cellular response evoked by Pt(IV)(α-TOS)(OEt) treatment, biomarkers related to DNA damage and apoptosis were monitored. […] Whole cell lysates were resolved by SDS-PAGE and analyzed by immunoblotting against γH2AX, p53, and cleaved caspase-7, cleaved caspase-9, cleaved PARP-1, and β-actin as control.
A549 cells (5×10^5 cells) were incubated with test compound for 48 h at 37° C. Cells were washed with PBS, scraped into SDS-PAGE loading buffer (64 mM Tris-HCl (pH6.8)/9.6% glycerol/2% SDS/5% β-mercaptoethanol/0.01% Bromophenol Blue) and incubated at 95° C. for 10 min. Whole cell lysates were resolved by 4-20% sodium dodecylsulphate polyacylamide gel electrophoresis (SDS-PAGE; 200 V for 1 h) followed by electro transfer to polyvinylidene difluoride membrane, PVDF (350 mA for 1 h). Membranes were blocked in 5% (w/v) non-fat milk in PBST (PBS/0.1% Tween 20) and incubated with the appropriate primary antibodies (Cell Signalling Technology and Santa Cruz). After incubation with horseradish peroxidase-conjugated secondary antibodies (Cell Signalling Technology), immune complexes were detected with the ECL detection reagent (BioRad) and analysed using an Alpha Innotech ChemiImager™ 5500 fitted with a chemiluminescence filter.

## CC[O][Pt]([NH2])([NH2])([Cl])([Cl])[O]C(=O)CCC(=O)Oc1c(C)c(C)c2c(c1C)CCC(C)(CCCC(C)CCCC(C)CCCC(C)C)O2 (stereo not drawn) [Pt(IV)(α-TOS)(OEt)]
  cleaved PARP-1 expression: increased
  cleaved caspase-9 expression: increased
  p53 expression: increased in a dose-dependent manner
  γH2AX expression: an increase in γH2AX expression

Source: patent US9133225B2, “Dual targeting anticancer agents” (priority 2013, dated 2015)
